Laboratory results as given in patent publication US7750017B2, “Heterocycles” (Bayer Schering Pharma Aktiengesellschaft, priority 2004, dated 2010).
Where a name gives a salt, the structure may show the parent alone.

How the values were obtained:
[1] = system: A431 cells [human epidermoid carcinoma, overexpressing HER1 (EGFR, ErbB1)]; test: In vitro tumor cell proliferation assay (Cell Titer-Glo luminescent cell viability), A431 cells; type: cell-based; conditions: A-431, 72 h, 72 hours of drug exposure, Cell Titer-Glo readout, read-out: IC50, anti-proliferative activity in A431 cells
Source text: (§1) The utility of the compounds of the present invention can be illustrated, for example, by their activity in vitro in the in vitro tumor cell proliferation assay described below. The link between activity in tumor cell proliferation assays in vitro and anti-tumor activity in the clinical setting has been very well established in the art.
(§2) The following assay is one of the methods by which compound activity relating to treatment of the disorders identified herein can be determined.
(§3) The tumor cell proliferation assay used to test the compounds of the present invention involves a readout called Cell Titer-Glow® Luminescent Cell Viability Assay developed by Promega® (Cunningham, B A “A Growing Issue: Cell Proliferation Assays, Modern kits ease quantification of cell growth” The Scientist 2001, 15(13), 26, and Crouch, S P et al., “The use of ATP bioluminescence as a measure of cell proliferation and cytotoxicity” Journal of Immunological Methods 1993, 160, 81-88), that measures inhibition of cell proliferation. Generation of a luminescent signal corresponds to the amount of ATP present, which is directly proportional to the number of metabolically active (proliferating) cells.
(§4) A431 cells [human epidermoid carcinoma, ATCC # […], overexpressing HER1 (EGFR, ErbB1)] and BT474 [human breast carcinoma, ATCC # CRL-1555, overexpressing HER2 (ErbB2)] were plated at a density of 2.5×10^3 cells/well in 96 well black-clear bottom tissue culture plates in RPMI media with 10% Fetal Bovine Serum and incubated at 37° C. Twenty-four hours later, test compounds are added at a final concentration range from as high 100 μm to as low 64 pM depend on the activities of the tested compounds in serial dilutions at a final DMSO concentration of 0.1%. Cells were incubated for 72 hours at 37° C. in complete growth media after addition of the test compound. After 72 hours of drug exposure, the plates were equilibrated to room temperature for approximately 30 min. Then, using a Promega Cell Titer Glo Luminescent® assay kit, lysis buffer containing 100 microliters of the enzyme luciferase and its substrate, luciferin mixture, was added to each well. The plates were mixed for 2 min on orbital shaker to ensure cell lysis and incubated for 10 min at room temperature to stabilize luminescence signal. The samples were read on VICTOR 2 using Luminescence protocol, and analyzed with Analyze5 software to generate IC50 values.

[2] = system: BT474 [human breast carcinoma, overexpressing HER2 (ErbB2)]; test: In vitro tumor cell proliferation assay (Cell Titer-Glo luminescent cell viability), BT474 cells; type: cell-based; conditions: BT-474, 72 h, 72 hours of drug exposure, Cell Titer-Glo readout, read-out: IC50, anti-proliferative activity in BT474 cells
Source text: as §1, §2, §3, §4

IC50 [1] [µM] | IC50 [2] [nM] | Structure (SMILES)
≤ 50 | ≤ 5000 | O=C(Cc1ccc2c(c1)sc1ncnc(Nc3ccc(OCc4cscn4)c(Cl)c3)c12)NCCCN1CCOCC1 [Example 139, 2-(4-{[3-chloro-4-(1,3-thiazol-4-ylmethoxy)phenyl]amino}[1]benzothieno[2,3-d]pyrimidin-7-yl)-N-(3-morpholin-4-ylpropyl) acetamide]
≤ 50 | ≤ 5000 | Clc1cc(Nc2ncnc3sc4cc(NCCN5CCOCC5)ccc4c23)ccc1OCc1ccccn1 [Example 78, N4-[3-chloro-4-(pyridin-2-ylmethoxy)phenyl]-N7-(2-morpholin-4-ylethyl)[1] benzothieno[2,3-d]pyrimidine-4,7-diamine trifluoroacetate]
≤ 50 | ≤ 500 | Oc1ccc2c(c1)sc1ncnc(Nc3ccc(OCc4cccc(F)c4)c(Cl)c3)c12 [Example 34, 4-({3-chloro-4-[(3-fluorobenzyl)oxy]phenyl}amino)[1]benzothieno[2,3-d]pyrimidin-7-ol]
≤ 50 | ≤ 500 | Clc1cc(Nc2ncnc3sc4cc(CCN5CCNCC5)ccc4c23)ccc1OCc1ccccn1 [Example 89, N-[3-chloro-4-(pyridin-2-ylmethoxy)phenyl]-7-(2-piperazin-1-ylethyl)[1]benzothieno[2,3-d] pyrimidin-4-amine trifluoroacetate]
≤ 5 | ≤ 500 | Fc1cccc(COc2ccc(Nc3ncnc4sc5cc(CCBr)ccc5c34)cc2Cl)c1 [Example 3, 7-(2-bromoethyl)-N-{3-chloro-4-[(3-fluorobenzyl)oxy]phenyl}[1]benzothieno[2,3-d]pyrimidin-4-amine]
 | ≤ 500 | CN1CCN(CCc2ccc3c(c2)sc2ncnc(Nc4ccc(OCc5ccccn5)c(Cl)c4)c23)CC1 [Example 91]
≤ 50 |  | CS(=O)(=O)CCNC(=O)/C=C/c1ccc2c(c1)sc1ncnc(Nc3ccc(OCc4cccc(F)c4)c(Cl)c3)c12 [Example 53, (2E)-3-[4-({3-chloro-4-[(3-fluorobenzyl)oxy]phenyl}amino) [1]benzothieno[2,3-d]pyrimidin-7-yl]-N-[2-(methylsulfonyl)ethyl]acrylamide]
≤ 5 |  | OC[C@@H](O)COc1ccc2c(c1)sc1ncnc(Nc3ccc(OCc4cccc(F)c4)c(Cl)c3)c12 [Example 35, (2R)-3-{[4-({3-chloro-4-[(3-fluorobenzyl)oxy]phenyl}amino)[1]benzothieno[2,3-d]pyrimidin-7-yl]oxy}propane-1,2-diol]
 | ≤ 500 | OC[C@@H](O)COc1ccc2c(c1)sc1ncnc(Nc3ccc(OCc4cccc(F)c4)c(Cl)c3)c12 [Example 147, ((2R)-3-{[4-({3-chloro-4-[(3-fluorobenzyl)oxy]phenyl}amino)[1]benzothieno[2,3-d]pyrimidin-7-yl]oxy}propane-1,2-diol hydrochloride]
≤ 5 |  | O=C(/C=C/c1ccc2c(c1)sc1ncnc(Nc3ccc(OCc4cccc(F)c4)c(Cl)c3)c12)N1CCOCC1 [Example 55, N-{3-chloro-4-[(3-fluorobenzyl)oxy]phenyl}-7-[(1E)-3-morpholin-4-yl-3-oxoprop-1-en-1-yl][1]benzothieno[2,3-d] pyrimidin-4-amine trifluoroacetate]

Structure (SMILES) | IC50 [1] [µM] | IC50 [2] [nM]
COCCN1CCN(C(=O)Cc2ccc3c(c2)sc2ncnc(Nc4ccc(OCc5ccccn5)c(Cl)c4)c23)CC1 [Example 104, N-[3-chloro-4-(pyridin-2-ylmethoxy)phenyl]-7-{2-[4-(2-methoxyethyl)piperazin-1-yl]-2-oxoethyl}[1]benzothieno [2,3-d]pyrimidin-4-amine] | ≤ 50 | ≤ 500
O=C(Cc1ccc2c(c1)sc1ncnc(Nc3ccc4c(cnn4Cc4cccc(F)c4)c3)c12)NC1CN2CCC1CC2 (stereo not shown) [Example 123, N-1-azabicyclo[2.2.2]oct-3-yl-2-(4-{[1-(3-fluorobenzyl)-1H-indazol-5-yl]amino}[1]benzothieno [2,3-d]pyrimidin-7-yl)acetamide] | ≤ 5 | ≤ 500
